Data: US4323559A, “Compounds derived from N-acetyl-nor-muramyl-L-alanyl-D-isoglutamic acid and other compounds and biologically active compositions containing such compounds” (Agencie Nationale de Valorisation de la Recherche (ANVAR), priority 1973, dated 1982)

Tests used:
Klebsiella pneumoniae = assay: Anti-infectious protection of mice against Klebsiella pneumoniae infection; format: in vivo; conditions: compound iv. 100 μg at -24 h; for % protection: difference of % survivors vs controls; for % survival D + 3 / % survival D + 5 / % survival D + 10: mice
[1] = system: bovine serum albumin (BSA); assay: Adjuvant activity in aqueous phase: anti-albumin antibody titer by passive hemagglutination; format: in vivo, Swiss mice; conditions: S.C., 100 μg with BSA 0.5 mg/animal in isotonic saline; for Titer of antibody 28th day: Swiss mice; for Titer of antibody 34th day / Titer of antibody 36th day: booster 0.1 mg BSA at day 30
Protocol: In the series of tests of which the results are indicated hereafter, the influence of the active principle according to the invention was assessed as bearing on the anti-albumin antibody rate, particularly under the following conditions. Groups of 8 two-month-old Swiss mice received by subcutaneous injection (SC) or orally (PO) 0.5 mg of antigen constituted by the bovine serum albumin (BSA) with or without the substance tested in an isotonic saline solution. This large dose of antigen, because of its closeness to the limit paralysing dose with respect to the immunising response, elicits but a weak or no immune response in the controls; it therefore constitutes a severe criterion for showing the activity of an adjuvant substance. […] The proportion of antibody was determined by passive hemagglutination by using sheep red blood cells treated with formalin and coated with the antigen studied according to the method described by […] and […]. Immunol., 100, 641-648, 1968). Blood samples were taken 14, 28, 34 and 36 days after the first injection.

Row | SMILES | % protection (Klebsiella pneumoniae; K. pneumoniae im. 2 × 10^4) [%] | % survival D + 3 (Klebsiella pneumoniae; K. pneumoniae im. 2 × 10^4) [%] | % survival D + 5 (Klebsiella pneumoniae; K. pneumoniae im. 2 × 10^4) [%] | % survival D + 10 (Klebsiella pneumoniae; K. pneumoniae im. 2 × 10^4) [%] | % protection (Klebsiella pneumoniae; K. pneumoniae im. 1,5 × 10^4) [%] | % survival D + 3 (Klebsiella pneumoniae; K. pneumoniae im. 1,5 × 10^4) [%] | % survival D + 5 (Klebsiella pneumoniae; K. pneumoniae im. 1,5 × 10^4) [%] | % survival D + 10 (Klebsiella pneumoniae; K. pneumoniae im. 1,5 × 10^4) [%] | Titer of antibody 28th day [1] | Titer of antibody 34th day [1] | Titer of antibody 36th day [1]
1 | CC(=O)N[C@H]1C(O)O[C@H](COC(C)=O)[C@@H](OC(C)=O)[C@@H]1O[C@H](C)C(=O)N[C@@H](C)C(=O)N[C@H](CCC(=O)O)C(N)=O (stereo partly drawn) [4,6-di-O-acetyl-Mur-NAc-L-Ala-D-Glu (OH)-NH2] | 47 | 97 | 84 | 63 | – | – | – | – | – | – | –
2 | CC(=O)N[C@H]1C(O)O[C@H](COC(=O)CCC(=O)O)[C@@H](O)[C@@H]1O[C@H](C)C(=O)N[C@@H](C)C(=O)N[C@H](CCC(=O)O)C(N)=O (stereo partly drawn) [6-O-succinyl-Mur-NAc-L-Ala-D-Glu, (OH)-NH2] | 44 | 100 | 91 | 63 | – | – | – | – | – | – | –
3 | CC(=O)N[C@@H]1[C@@H](O[C@H](C)C(=O)N[C@@H](C)C(=O)N[C@H](CCC(=O)O)C(N)=O)[C@H](O)[C@@H](CO)O[C@H]1O [Mur-NAc-L-Ala-D-Glu(OH)--NH2, Mur-NAc-L-Ala-D-Glu(OH)-NH2, reference compound] | – | – | – | – | 47 | 83 | 66 | 60 | 25 | 50 | 400
4 | CC(=O)N[C@H]1C(O)O[C@H](CO)[C@@H](O)[C@@H]1OCC(=O)N[C@@H](C)C(=O)N[C@H](CCC(=O)O)C(N)=O (stereo partly drawn) [norMur-NAc-L-Ala-D-Glu(OH)-NH2, 2-(2-acetamido-2-deoxy-3-O-D-glucopyranosyl)-acetyl-L-alanyl-D-isoglutamine] | – | – | – | – | 47 | 78 | 64 | 60 | 25 | 50 | 350
